Results on seven compounds are retold here after paper PMC9572773, “Effects of Extracts and Flavonoids from Drosera rotundifolia L. on Ciliary Beat Frequency and Murine Airway Smooth Muscle” (Molecules, 2022).

Each structure is given as a SMILES string.

In assay [1] the test system is airway smooth muscle of mouse tracheal slices, acetylcholine-induced contraction. The experiment in a line: ACh-induced contraction of mouse tracheal slices (tissue bath). The class given is cell-based, C57BL/6N mice. The source says: Male and female C57BL/6N mice (Charles River, Sulzfeld, Germany, and own breeding at the Institute of Pharmaceutical and Medicinal Chemistry, University of Münster, Germany) were housed under standard conditions. Animal care followed the rules of German laws (Az. 53.5.32.7.1/MS-12668, Health and Veterinary Office Münster, Germany). The mice were sacrificed using CO2. A Mayflower horizontal tissue bath (Hugo Sachs Elektronik, Germany) was used to measure contractions. Murine tracheal slices of 3 mm were placed in the 5 mL tissue bath at a preload of 0.2 cN. Krebs–Henseleit buffer (37 °C) was continuously gassed (O2:CO2 95:5). Drosera dry extract (0.5 mg/mL) was solved in Krebs–Henseleit buffer containing 1 % DMSO (DE). DFA was obtained as described above. […] Control solutions contained equal amounts of DMSO depending on the respective test compound. Experiments were started after an equilibration time of 60 min. Tracheal tension was measured isometrically (force transducer F10 Type 375, amplifier TAM-A Type 705/1, evaluation software HSE ACAD 2.0, Harvard Apparatus GmbH, March-Hugstetten, Germany). […] Test solutions were added 10 min before the next ACh bolus. When using a high potassium solution (60 mM K^+), NaCl concentration was reduced to maintain osmolarity. At least 3 K^+-induced contractions (each 20 min) were averaged and taken as control contraction. The maximal contraction represents the highest value, while the plateau (plat.) was calculated in minutes 19–20.

For the next assay, the target named is T1, PDE4D (Homo sapiens, UniProt Q08499).
T1 construct: purchased Biomol (Hamburg, Germany) #60345
T1 sequence (Q08499 303-809 limits assumed): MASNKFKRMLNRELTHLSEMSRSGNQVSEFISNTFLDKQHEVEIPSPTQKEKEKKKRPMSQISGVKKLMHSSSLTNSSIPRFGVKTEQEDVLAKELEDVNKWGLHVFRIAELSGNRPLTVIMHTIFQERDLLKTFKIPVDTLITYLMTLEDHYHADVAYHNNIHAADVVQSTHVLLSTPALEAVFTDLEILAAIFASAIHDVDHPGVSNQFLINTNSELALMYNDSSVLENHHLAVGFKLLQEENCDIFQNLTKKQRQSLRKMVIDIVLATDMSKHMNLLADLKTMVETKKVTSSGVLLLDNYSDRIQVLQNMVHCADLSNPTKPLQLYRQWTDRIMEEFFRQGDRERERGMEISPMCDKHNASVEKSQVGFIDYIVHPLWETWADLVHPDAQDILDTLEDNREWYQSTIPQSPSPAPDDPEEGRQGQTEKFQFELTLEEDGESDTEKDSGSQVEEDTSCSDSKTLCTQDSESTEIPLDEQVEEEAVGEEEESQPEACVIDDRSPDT
The experiment in a line: PDE4D inhibitor assay (fluorescence polarization, cell-free). In kind it is biochemical. The conditions noted are these: for IC50: cell-free, duplicates, 1% DMSO, CI = confidence interval. The method, then:
Assays were based on fluorescence polarization using fluorescein amidites-labeled cAMP and were performed according to the manufacturer’s instructions. Samples were recorded as duplicates in a 96-well plate containing equal amounts of DMSO (1%). […] The IC50 values were calculated by a fitting of sigmoidal dose–response curves (variable slope) with GraphPad Prism version 3.00 for Windows (GraphPad, San Diego, CA, USA).

The next assay deals with T2, PDE1A (Homo sapiens, UniProt P54750).
T2 construct: purchased Biomol (Hamburg, Germany) #60310
T2 sequence (P54750 whole entry): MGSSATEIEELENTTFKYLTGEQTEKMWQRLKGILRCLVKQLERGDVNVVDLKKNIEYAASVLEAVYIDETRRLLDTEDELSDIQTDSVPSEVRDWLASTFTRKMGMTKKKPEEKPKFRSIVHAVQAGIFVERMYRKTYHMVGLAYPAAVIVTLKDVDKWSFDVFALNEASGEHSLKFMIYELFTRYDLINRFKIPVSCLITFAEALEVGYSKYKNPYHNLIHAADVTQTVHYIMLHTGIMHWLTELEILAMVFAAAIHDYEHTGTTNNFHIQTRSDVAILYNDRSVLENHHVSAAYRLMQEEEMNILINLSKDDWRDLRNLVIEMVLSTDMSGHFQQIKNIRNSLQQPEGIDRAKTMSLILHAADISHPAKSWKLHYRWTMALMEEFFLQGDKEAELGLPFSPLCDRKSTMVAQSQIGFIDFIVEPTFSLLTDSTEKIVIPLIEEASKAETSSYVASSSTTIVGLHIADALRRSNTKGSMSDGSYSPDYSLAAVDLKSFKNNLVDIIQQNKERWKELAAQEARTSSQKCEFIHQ
Briefly: PDE1A inhibitor assay (fluorescence polarization, cell-free). The class given is biochemical. The conditions noted are these: for IC50: cell-free, duplicates, 1% DMSO, CI = confidence interval. On the procedure: The activity of PDE4D and PDE1A was measured with assay kits #60345 and #60310 from Biomol (Hamburg, Germany). Assays were based on fluorescence polarization using fluorescein amidites-labeled cAMP and were performed according to the manufacturer’s instructions. Samples were recorded as duplicates in a 96-well plate containing equal amounts of DMSO (1%). The fluorescence polarization was measured at excitation wavelengths between 480 and 516 nm and emission wavelengths between 530 and 540 nm by using the plate reader CLARIOstar (BMG Labtech, Ortenberg, Germany). The IC50 values were calculated by a fitting of sigmoidal dose–response curves (variable slope) with GraphPad Prism version 3.00 for Windows (GraphPad, San Diego, CA, USA).
(In general: Polarisation of emitted light reports the rotation of a fluorescent probe.)

Assay [2] has as its system ciliated tracheal epithelium cells. The experiment in a line: Ciliary beat frequency (CBF) of murine tracheal slices. In kind it is cell-based, C57BL/6N mice. The following applies: for CBFRatio (related to CBFBasal): mean ± SD. The method, then:
Male and female C57BL/6N mice (Charles River, Sulzfeld, Germany, and own breeding at the Institute of Pharmaceutical and Medicinal Chemistry, University of Münster, Germany) were housed under standard conditions. Animal care followed the rules of German laws (Az. 53.5.32.7.1/MS-12668, Health and Veterinary Office Münster, Germany). The mice were sacrificed using CO2. Murine tracheal explants were placed in LHC-9 medium (Invitrogen, CA, USA), cut into 0.5 mm slices and stored at 37 °C and an atmosphere of 5% CO2. The medium was changed every 3 days. CBF was measured up to 7 days after dissection. Slices were placed in a 0.7 mL perfusion chamber at 37 °C and perfused with Krebs–Henseleit buffer (1 mL/min). The tissue bath was located at an inverted Nikon Eclipse Ti2 microscope (Nikon GmbH, Düsseldorf, Germany) with a 100× oil objective. Drosera dry extract (0.2 mg/mL) was solved in Krebs–Henseleit buffer containing 0.3% DMSO (DE). The amount of DMSO was not exceeding 0.3%; as for this concentration, no effects on CBF were reported. DFA was prepared as described above. […] 2″-O-Galloylhyperoside, ATP and salbutamol were solved without DMSO. In case DMSO was added, all test solutions of one experiment contained the same amount of DMSO. […] Videos were captured and analyzed by the SAVA software (Ammons Engineering, Clio, MI, USA). Ciliated cells exerted baseline frequencies in a range of 5 to 20 Hz, in agreement with the literature. Data were normalized to values of the last 5 min before changing to a test solution (CBFbasal), and effects on ciliary beating were expressed as a ratio (CBFRatio).

Another assay relates to guinea-pig ileum. On the set-up: method as in PMID 11933852. The following applies: 10 µM; cited from earlier work.

In the case of `O=C(O[C@H]1[C@H](Oc2c(-c3ccc(O)c(O)c3)oc3cc(O)cc(O)c3c2=O)O[C@H](CO)[C@H](O)[C@@H]1O)c1cc(O)c(O)c(O)c1` [2″-O-galloylhyperoside], the “ACh-induced contraction, % of control” value in assay [1] (500 µM, 10 min pretreatment, 100 µM ACh) worked out at 61 ± 21%. For the same compound, the “ACh-induced contraction compared with the effect at 500 µM” value in assay [1] (750 and 1000 µM, 100 µM ACh) is “did not significantly differ”. In addition, the results for the half-inhibitory concentration (IC50) at PDE4D and on PDE1A were 1.1 µM and 3 µM, respectively. Further, the “CBFRatio (related to CBFBasal)” value in assay [2] (300 µM, minutes 10 to 15) came out at 1.11 ± 0.04.
`COCc1nc2c([nH]1)c(=O)n(C)c(=O)n2CC(C)C` [8MmIBMX, 8-methoxymethyl-IBMX]: the entries for the “PDE4D activity (% of control without inhibitor)” value on PDE4D (50 µM) and on PDE4D (100 µM) were 77 ± 6% and 70 ± 2%, respectively. It took 12 µM to reach half-maximal inhibition against PDE1A (IC50). The “increase of CBF on average” value in assay [2] (100 µM) is reported as 20%. Besides, the “CBFRatio (related to CBFBasal)” value in assay [2] (100 µM, minutes 10 to 15) stood at 1.2 ± 0.1.
As to `Nc1ncnc2c1ncn2[C@@H]1O[C@H](COP(=O)(O)OP(=O)(O)OP(=O)(O)O)[C@@H](O)[C@H]1O` [ATP], the “CBFRatio (related to CBFBasal)” value in assay [2] (30 µM, minutes 10 to 15) stood at 1.4 ± 0.2.
Regarding `O=c1c(O[C@@H]2O[C@H](CO)[C@H](O)[C@H](O)[C@H]2O)c(-c2ccc(O)c(O)c2)oc2cc(O)cc(O)c12` [Hyperoside, hyperoside], in assay [1] (50 to 750 µM, all concentrations tested, 100 µM ACh), the “ACh-mediated contraction force, % of control” value was “approximately 80%”. Besides, the “maximal reduction of ACh-induced contraction force” value in assay [1] (maximal effect) is reported as 20–25%. The same compound showed an IC50 at PDE4D of 3 µM.
In the case of `O=c1c(O)c(-c2ccc(O)c(O)c2)oc2cc(O)cc(O)c12` [quercetin], the “abrogation of ACh-induced contraction on ASM” value in assay [1] (10 µM) was “failed to abrogate”. The activity at 25 µM in assay [1] (Mus musculus, 25 µM, 10 min pretreatment, read-out: effect of 100 µM ACh (contraction force, % of control)) came to 74 ± 11%. Besides, the activity at 50 µM in assay [1] (Mus musculus, 50 µM, 10 min pretreatment, read-out: effect of 100 µM ACh (contraction force, % of control)) is 63 ± 7%. The activity at 100 µM in assay [1] (Mus musculus, 100 µM, 10 min pretreatment, read-out: effect of 100 µM ACh (contraction force, % of control)) worked out at 21 ± 2%. For the same compound, the “inhibition of carbachol-induced contractions” value in the assay with guinea-pig ileum is reported as “more than 50%”. Further, the values for the IC50 against PDE4D and at PDE1A were 2 µM and 4 µM, respectively. Further, the “CBFRatio (related to CBFBasal)” value in assay [2] (30 µM, minutes 10 to 15) is 1.2 ± 0.2.
For `COc1ccc(C2CNC(=O)C2)cc1OC1CCCC1` (stereo not drawn) [rolipram], on PDE1A (100 µM, read-out: PDE1A activity (% of control without inhibitor)), the remaining activity at 100 µM amounted to 98.2 ± 0.6%. For the same compound, the remaining activity at 300 µM on PDE1A (300 µM, read-out: PDE1A activity (% of control without inhibitor)) is 92 ± 2%. In assay [2] (30 µM), the “increase of CBF on average” value is recorded as 20%. The “CBFRatio (related to CBFBasal)” value in assay [2] (30 µM, minutes 10 to 15) was 1.2 ± 0.2.
Regarding `CC(C)(C)NCC(O)c1ccc(O)c(CO)c1` (stereo not drawn) [salbutamol], in assay [2] (50 µM, minutes 5 to 10), the “CBFRatio (related to CBFBasal)” value is recorded as 1.4 ± 0.3.

As usually defined, the IC50 is the concentration that inhibits the measured activity by half.
